Assay results published in US11927589B2, “Carrier peptide fragment for nucleolar localization and use thereof” (TOAGOSEI CO., LTD., priority 2021, dated 2024).
FAM = FAM: 5(6)-carboxyfluorescein, a fluorescent dye

Key:
[1] = Cytotoxicity examination by the inventors; type: cell-based
Protocol: In all of the amino acid sequences shown in SEQ ID NOs 1 to 4, 11 amino acid residues among 13 amino acid residues are composed of basic amino acids (arginine and lysine). […] On the other hand, in the carrier peptide fragment composed of any of the amino acid sequences shown in SEQ ID NOs 1 to 4, the inventors have confirmed through examination that, even if the concentration of the carrier peptide fragment is 100 μM, there is almost no cytotoxicity, and the cytotoxicity is much lower than that of R8. […] Although the details of the mechanism are not clear, in the carrier peptide fragment disclosed here, it is estimated that inclusion of a threonine residue and a leucine residue which are neutral amino acids at the 4th and 5th positions in addition to basic amino acids contributes to reduction of cytotoxicity.

[2] = system: HeLa cells; assay: Evaluation of cell membrane permeability by flow cytometry (Test 1); details: 10 μM, 20 hours incubation
Protocol: HeLa cells were cultured in a DMEM (Dulbecco's modified Eagle's medium (Cat No. 043-30085 commercially available from FUJIFILM Wako Pure Chemical Corporation)) containing 10% FBS (fetal bovine serum), which is a general culture medium.
HeLa cells adhered to a culture plate were washed with PBS and a 0.25% trypsin/EDTA solution was then added, and the cells were incubated at 37° C. for 3 minutes. After the incubation, a 10% FBS-containing DMEM was added, trypsin was inactivated, and centrifugation was then performed at 150×g for 5 minutes to precipitate cells. […]
For the obtained cells (cell pellets), the cell permeability of Sample 1 was analyzed using a flow cytometer. […]
Using the flow cytometer, gating was performed based on forward scatter (FSC) and side scatter (SSC), a gate was set for a cell population to be analyzed, and the fluorescent intensity was measured for the cell population within such a gate. […] For measurement of the fluorescent intensity, a fluorescence detector FL2 (optimal detection wavelength of about 543 nm) of the flow cytometer that can detect a fluorescence wavelength of FAM was used. The measurement results were analyzed using commercially available analysis software “FlowJo (registered trademark)” (commercially available from TreeStar) to obtain a mean fluorescent intensity (MFI) of the cell population to be measured.

[3] = system: HeLa cells; assay: Intracellular localization by confocal laser scanning microscopy (Test 2); type: cell-based, human; details: 5 μM, 20 hours, methanol-fixed, DAPI/FAM merged images
Protocol: In this test, localization of Samples 1 to 5 in HeLa cells was analyzed. HeLa cells were seeded on collagen-coated 8-well slides at about 2×10^4 cells/well, and cultured overnight in the presence of 5% CO2 at 37° C. A 10% FBS-containing DMEM was used as the cell culture solution.
Then, the supernatant (culture solution) was removed, ice-cooled PBS was added, and washing on ice was performed three times. Then, ice-cooled methanol was added, the sample was left at −20° C. for 10 minutes, and the cells were immobilized. Then, methanol was removed, and washing was then performed three times with ice-cooled PBS. Then, a DAPI-containing encapsulant (commercially available from ThemoFisher Scientific) and a cover glass were used for encapsulation and fluorescence observation was performed under a confocal laser scanning microscope. […] Here, all FIGS. 2A to 2E show images in which fluorescent images of DAPI and FAM were merged.

N=C(N)NCCC[C@H](NC(=O)[C@H](CCCNC(=N)N)NC(=O)[C@H](CCCNC(=N)N)NC(=O)[C@H](CCCNC(=N)N)NC(=O)[C@H](CCCNC(=N)N)NC(=O)[C@H](CCCNC(=N)N)NC(=O)[C@H](CCCNC(=N)N)NC(=O)[C@@H](N)CCCNC(=N)N)C(=O)O [Example R8, octaarginine]
cytotoxicity [1]: relatively high

Ac-KKRTLRKKKRKKR-FAM (Ac-KKRTLRKKKRKKR-{FAM}) [Example 1]
MFI value compared with the MFI value of Example 5 [2]: more than three times as high

Ac-KKRTLRKNDRKKR-FAM (Ac-KKRTLRKNDRKKR-{FAM}) [Example 5]
fluorescence of FAM observed in the nucleolus [3]: slightly observed in the nucleolus

5(6)-carboxyfluorescein [Example 6]
relative value of MFI (mean fluorescent intensity), MFI value of Example 6 set to 1 ([2]; flow cytometer FL2): 1
